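Protocol summary: plate cells (96-well), add compound at 5 concentrations, incubate 48 h, interpolate endpoints linearly. TGI denotes the concentration required for complete inhibition of growth.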
What was measured:
Test in all cases: DTP human tumour cell line panel, 48 h
[1] = test system: BT-549 breast
[2] = test system: OVCAR-4 ovarian
[3] = test system: HCC-2998 colon
[4] = test system: SF-295 CNS
[5] = test system: U251 CNS
[6] = test system: RXF 393 renal
[7] = test system: IGROV1 ovarian
[8] = test system: KM12 colon
[9] = test system: NCI-H226 lung
[10] = test system: HCT-116 colon
[11] = test system: HS 578T breast
[12] = test system: HT29 colon
[13] = test system: NCI/ADR-RES ovarian
[14] = test system: UACC-62 melanoma
[15] = test system: K-562 leukemia
[16] = test system: NCI-H460 lung
[17] = test system: OVCAR-8 ovarian
[18] = test system: PC-3 prostate
[19] = test system: MDA-N
[20] = test system: NCI-H522 lung
[21] = test system: 786-0 renal
[22] = test system: SK-OV-3 ovarian
[23] = test system: SF-539 CNS
[24] = test system: NCI-H23 lung
[25] = test system: HCT-15 colon
[26] = test system: UO-31 renal
[27] = test system: A498 renal
[28] = test system: OVCAR-3 ovarian
[29] = test system: MALME-3M melanoma
[30] = test system: UACC-257 melanoma
[31] = test system: SR leukemia
[32] = test system: SK-MEL-28 melanoma
[33] = test system: MDA-MB-435
[34] = test system: MOLT-4 leukemia
[35] = test system: OVCAR-5 ovarian
[36] = test system: TK-10 renal
[37] = test system: SNB-75 CNS
[38] = test system: M14 melanoma
[39] = test system: HOP-92 NSCLC
[40] = test system: SN12C renal
[41] = test system: HL-60(TB) leukemia
[42] = test system: ACHN renal
[43] = test system: COLO 205 colon
[44] = test system: RPMI-8226 leukemia
[45] = test system: MCF7 breast
[46] = test system: SW-620 colon
[47] = test system: DU-145 prostate
[48] = test system: SK-MEL-2 melanoma
[49] = test system: SNB-19 CNS
[50] = test system: A549 NSCLC
[51] = test system: EKVX NSCLC
[52] = test system: SF-268 CNS
[53] = test system: HOP-62 NSCLC
[54] = test system: T-47D breast
[55] = test system: SK-MEL-5 melanoma
[56] = test system: CCRF-CEM leukemia
[57] = test system: LOX IMVI melanoma
[58] = test system: CAKI-1 renal
[59] = test system: MDA-MB-231 breast

CCOc1ccc(NC(=O)/C(=N\NC(C)(C)C)C2C(=O)Nc3ccccc3S2=O)cc1 (stereo not drawn)
TGI [1]: > 100 µM
TGI [2]: > 100 µM
TGI [3]: > 100 µM
TGI [4]: > 100 µM
TGI [5]: > 100 µM
TGI [6]: > 100 µM
TGI [7]: > 100 µM
TGI [8]: > 100 µM
TGI [9]: > 100 µM
TGI [10]: > 100 µM
TGI [11]: > 100 µM
TGI [12]: > 100 µM
TGI [13]: > 100 µM
TGI [14]: > 100 µM
TGI [15]: > 100 µM
TGI [16]: > 100 µM
TGI [17]: > 100 µM
TGI [18]: > 100 µM
TGI [19]: > 100 µM
TGI [20]: > 100 µM
TGI [21]: > 100 µM
TGI [22]: > 100 µM
TGI [23]: > 100 µM
TGI [24]: > 100 µM
TGI [25]: > 100 µM
TGI [26]: > 100 µM
TGI [27]: > 100 µM
TGI [28]: > 100 µM
TGI [29]: > 100 µM
TGI [30]: > 100 µM
TGI [31]: > 100 µM
TGI [32]: > 100 µM
TGI [33]: > 100 µM
TGI [34]: > 100 µM
TGI [35]: > 100 µM
TGI [36]: > 100 µM
TGI [37]: > 100 µM
TGI [38]: > 100 µM
TGI [39]: > 100 µM
TGI [40]: > 100 µM
TGI [41]: > 100 µM
TGI [42]: > 100 µM
TGI [43]: > 100 µM
TGI [44]: > 100 µM
TGI [45]: > 100 µM
TGI [46]: > 100 µM
TGI [47]: > 100 µM
TGI [48]: > 100 µM
TGI [49]: > 100 µM
TGI [50]: > 100 µM
TGI [51]: > 100 µM
TGI [52]: > 100 µM
TGI [53]: > 100 µM
TGI [54]: > 100 µM
TGI [55]: > 100 µM
TGI [56]: > 100 µM

C/C=C1/CN2CCC3(O)c4ccccc4N4C=C(C(=O)OC)C1CC2C43O (stereo not drawn)
TGI [1]: > 100 µM
TGI [2]: > 100 µM
TGI [3]: > 100 µM
TGI [4]: > 100 µM
TGI [5]: > 100 µM
TGI [7]: > 100 µM
TGI [8]: > 100 µM
TGI [10]: > 100 µM
TGI [11]: > 100 µM
TGI [12]: > 100 µM
TGI [13]: > 100 µM
TGI [14]: > 100 µM
TGI [15]: > 100 µM
TGI [16]: > 100 µM
TGI [17]: > 100 µM
TGI [18]: > 100 µM
TGI [19]: > 100 µM
TGI [57]: > 100 µM
TGI [20]: > 100 µM
TGI [21]: > 100 µM
TGI [22]: > 100 µM
TGI [23]: > 100 µM
TGI [24]: > 100 µM
TGI [25]: > 100 µM
TGI [26]: > 100 µM
TGI [28]: > 100 µM
TGI [58]: > 100 µM
TGI [29]: > 100 µM
TGI [30]: > 100 µM
TGI [31]: > 100 µM
TGI [32]: > 100 µM
TGI [33]: > 100 µM
TGI [34]: > 100 µM
TGI [35]: > 100 µM
TGI [36]: > 100 µM
TGI [37]: > 100 µM
TGI [38]: > 100 µM
TGI [39]: > 100 µM
TGI [40]: > 100 µM
TGI [41]: > 100 µM
TGI [42]: > 100 µM
TGI [43]: > 100 µM
TGI [44]: > 100 µM
TGI [45]: > 100 µM
TGI [46]: > 100 µM
TGI [47]: > 100 µM
TGI [49]: > 100 µM
TGI [50]: > 100 µM
TGI [51]: > 100 µM
TGI [52]: > 100 µM
TGI [53]: > 100 µM
TGI [54]: > 100 µM
TGI [55]: > 100 µM
TGI [56]: > 100 µM

COc1ccc(/C=C2\CCC(C)/C(=C\c3ccc(OC)c(OC)c3)C2=O)cc1OC (stereo not drawn)
TGI [1]: 20.3 µM
TGI [4]: 23 µM
TGI [5]: > 100 µM
TGI [6]: 24.2 µM
TGI [7]: 14.6 µM
TGI [8]: 7.04 µM
TGI [9]: 38.8 µM
TGI [10]: 14.3 µM
TGI [11]: 88.3 µM
TGI [12]: 52.9 µM
TGI [59]: 60.8 µM
TGI [13]: 32.5 µM
TGI [14]: 23.1 µM
TGI [15]: 67.3 µM
TGI [17]: 39.8 µM
TGI [18]: 23.4 µM
TGI [19]: > 100 µM
TGI [57]: 19.2 µM
TGI [21]: 19.4 µM
TGI [22]: 42.3 µM
TGI [23]: 13.8 µM
TGI [24]: 15.6 µM
TGI [25]: 21.2 µM
TGI [26]: 23.3 µM
TGI [27]: 25.3 µM
TGI [28]: > 100 µM
TGI [58]: 21.6 µM
TGI [29]: 22 µM
TGI [30]: 21.5 µM
TGI [32]: 48.1 µM
TGI [33]: > 100 µM
TGI [34]: 11.7 µM
TGI [35]: 26.6 µM
TGI [36]: 7.41 µM
TGI [38]: 31.2 µM
TGI [40]: 36.5 µM
TGI [41]: 5.93 µM
TGI [42]: 16.7 µM
TGI [43]: 54.2 µM
TGI [44]: 8.01 µM
TGI [45]: 22.3 µM
TGI [46]: > 100 µM
TGI [47]: 21 µM
TGI [48]: 25.3 µM
TGI [49]: 39.3 µM
TGI [51]: 10.2 µM
TGI [52]: 45.1 µM
TGI [54]: 28.2 µM
TGI [55]: 17.5 µM
TGI [56]: 7.6 µM

C/C1=C/C(C)CC(C)OC(=O)C(C)NC(=O)C(Cc2ccc(O)c(I)c2)N(C)C(=O)C(C)NC(=O)C(C)C1 (stereo not drawn)
TGI [1]: 0.737 µM
TGI [3]: 5.2 µM
TGI [4]: 1.25 µM
TGI [5]: 0.892 µM
TGI [6]: < 0.0106 µM
TGI [7]: < 0.01 µM
TGI [8]: 24.3 µM
TGI [10]: > 48.7 µM
TGI [11]: < 0.0392 µM
TGI [12]: > 40.7 µM
TGI [59]: 0.963 µM
TGI [13]: 24.4 µM
TGI [14]: 15 µM
TGI [15]: > 40.8 µM
TGI [16]: 12.8 µM
TGI [17]: 17.9 µM
TGI [19]: 30.7 µM
TGI [57]: < 0.01 µM
TGI [20]: 0.649 µM
TGI [21]: 3.79 µM
TGI [23]: 1.61 µM
TGI [24]: 44.4 µM
TGI [25]: 12.1 µM
TGI [27]: < 0.0137 µM
TGI [28]: < 0.01 µM
TGI [29]: 3.45 µM
TGI [30]: 8.36 µM
TGI [31]: 5.8 µM
TGI [33]: 16 µM
TGI [34]: 23.7 µM
TGI [35]: > 100 µM
TGI [36]: 0.046 µM
TGI [37]: < 0.01 µM
TGI [38]: 48.8 µM
TGI [39]: 0.0259 µM
TGI [40]: > 89.2 µM
TGI [41]: < 0.01 µM
TGI [44]: 10.1 µM
TGI [45]: > 100 µM
TGI [46]: > 100 µM
TGI [47]: > 58.1 µM
TGI [48]: 5.67 µM
TGI [49]: > 100 µM
TGI [50]: > 100 µM
TGI [52]: 0.347 µM
TGI [53]: < 0.01 µM
TGI [54]: 29.1 µM
TGI [55]: 11.7 µM

Source: PubChem BioAssay (NCI)
